Measurements: patent US8410117B2, “Imidazopyrimidine derivatives” (Hoffmann-La Roche Inc., priority 2010, dated 2013)

molecular target: T1, human PDE10A (Homo sapiens, UniProt Q9Y233); assay: human PDE10A full length Scintillation Proximity Assay (SPA); type: biochemical; settings: 50 nM cGMP and 50 nM [3H]-cGMP, 20 minutes at room temperature; read-out: PDE10A inhibition IC50
T1 construct: The human PDE10A full length assay; purchased Enzo Life Science, Lausen, Switzerland SE-534
Description: The following test was carried out in order to determine the activity of the compounds of the present invention. PDE10 activity of the compounds of the present invention was determined using a Scintillation Proximity Assay (SPA)-based method similar to the one previously described (Fawcett, L. et al., Proc Natl Acad Sci USA (2000) 97(7):3702-3707).
The human PDE10A full length assay was performed in 96-well micro titer plates. The reaction mixture of 50 μl contained 20 mM HEPES pH=7.5/10 mM MgCl2/0.05 mg/ml BSA (Sigma cat. #A-7906), 50 nM cGMP (Sigma, cat. #G6129) and 50 nM [^3H]-cGMP (GE Healthcare, cat. #TRK392 S.A. 13.2 Ci/mmol), 3.75 ng/well PDE10A enzyme (Enzo Life Science, Lausen, Switzerland cat #SE-534) with or without a specific test compound. A range of concentrations of the potential inhibitor was used to generate data for calculating the concentration of inhibitor resulting in 50% of the effect (e.g. IC50, the concentration of the competitor inhibiting PDE10A activity by 50%). Non-specific activity was tested without the enzyme. The reaction was initiated by the addition of the substrate solution (cGMP and [^3H]-cGMP) and allowed to progress for 20 minutes at room temperature. The reaction was terminated by adding 25 μl of YSi-SPA scintillation beads (GE Healthcare, cat. #RPNQ0150) in 18 mM zinc sulphate solution (stop reagent). After 1 h under shaking, the plate was centrifuged one minute at 170 g to allow beads to settle. Afterwards, radioactive counts were measured on a Perkin Elmer TopCount Scintillation plate reader.

T1 sequence (Q9Y233 1-779 isoform Q9Y233-1): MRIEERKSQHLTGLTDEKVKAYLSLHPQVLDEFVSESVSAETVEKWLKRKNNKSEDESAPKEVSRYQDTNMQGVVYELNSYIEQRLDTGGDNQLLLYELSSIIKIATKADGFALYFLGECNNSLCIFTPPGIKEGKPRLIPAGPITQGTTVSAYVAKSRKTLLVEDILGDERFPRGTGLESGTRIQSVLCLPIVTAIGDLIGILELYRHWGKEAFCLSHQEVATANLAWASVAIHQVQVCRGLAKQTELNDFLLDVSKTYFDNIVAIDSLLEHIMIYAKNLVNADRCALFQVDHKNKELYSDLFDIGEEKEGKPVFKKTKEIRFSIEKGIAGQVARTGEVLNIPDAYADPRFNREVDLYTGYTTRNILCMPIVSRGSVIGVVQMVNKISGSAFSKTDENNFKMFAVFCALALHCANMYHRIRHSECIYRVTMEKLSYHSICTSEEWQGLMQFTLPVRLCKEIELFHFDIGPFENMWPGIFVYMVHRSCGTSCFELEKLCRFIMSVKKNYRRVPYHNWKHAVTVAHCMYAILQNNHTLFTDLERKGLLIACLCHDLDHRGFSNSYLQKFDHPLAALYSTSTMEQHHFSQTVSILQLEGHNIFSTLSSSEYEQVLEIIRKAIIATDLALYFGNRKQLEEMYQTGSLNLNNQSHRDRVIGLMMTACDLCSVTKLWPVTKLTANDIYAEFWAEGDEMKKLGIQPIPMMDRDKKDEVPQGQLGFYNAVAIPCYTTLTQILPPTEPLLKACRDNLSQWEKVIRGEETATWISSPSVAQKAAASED

SMILES | IC50
CCN(C)C(=O)c1cnn(CC)c1C(=O)Nc1ccn2cc(-c3ccccc3)nc2n1 [Example 73, 2-Ethyl-2H-pyrazole-3,4-dicarboxylic acid 4-(ethyl-methyl-amide) 3-[(2-phenyl-imidazo[1,2-a]pyrimidin-7-yl)-amide]] | 2.8 nM
Cn1ncc(C(=O)N2CCC2)c1C(=O)Nc1ccn2cc(-c3ccc(Cl)s3)nc2n1 [Example 74, 4-(Azetidine-1-carbonyl)-2-methyl-2H-pyrazole-3-carboxylic acid [2-(5-chloro-thiophen-2-yl)-imidazo[1,2-a]pyrimidin-7-yl]-amide] | 4 nM
CN(C)C(=O)c1cnn(C)c1C(=O)Nc1ccn2cc(-c3ccccc3)nc2n1 [Example 75, 2-Methyl-2H-pyrazole-3,4-dicarboxylic acid 4-dimethylamide 3-[(2-phenyl-imidazo[1,2-a]pyrimidin-7-yl)-amide]] | 4.9 nM
O=C(Nc1ccn2cc(-c3ccccc3)nc2n1)c1nc(C2CC2)ccc1Nc1cncnc1 [Example 77, 6-Cyclopropyl-3-(pyrimidin-5-ylamino)-pyridine-2-carboxylic acid (2-phenyl-imidazo[1,2-a]pyrimidin-7-yl)-amide] | 6.3 nM
Cn1ncc(C(=O)N2CCC2)c1C(=O)Nc1ccn2cc(-c3cccc(OCF)c3)nc2n1 [Example 82, 4-(Azetidine-1-carbonyl)-N-(2-(3-(fluoromethoxy)phenyl)imidazo[1,2-a]pyrimidin-7-yl)-1-methyl-1H-pyrazole-5-carboxamide] | 3.4 nM
Cn1ncc(C(=O)N2CCC2)c1C(=O)Nc1ccn2cc(-c3cccc(O)c3)nc2n1 [Example 83, 4-(Azetidine-1-carbonyl)-2-methyl-2H-pyrazole-3-carboxylic acid [2-(3-hydroxy-phenyl)-imidazo[1,2-a]pyrimidin-7-yl]-amide] | 3.4 nM
CN(C)C(=O)c1cnn(C)c1C(=O)Nc1ccn2cc(-c3cccc(O)c3)nc2n1 [Example 84, 2-Methyl-2H-pyrazole-3,4-dicarboxylic acid 4-dimethylamide 3-{[2-(3-hydroxy-phenyl)-imidazo[1,2-a]pyrimidin-7-yl]-amide}] | 3.8 nM
COc1cccc(-c2cn3ccc(NC(=O)c4c(C(=O)N(C)C)cnn4C)nc3n2)c1 [Example 85, 2-Methyl-2H-pyrazole-3,4-dicarboxylic acid 4-dimethylamide 3-{[2-(3-methoxy-phenyl)-imidazo[1,2-a]pyrimidin-7-yl]-amide}] | 4 nM
CCN(C)C(=O)c1cnn(C)c1C(=O)Nc1ccn2cc(-c3cccc(OCF)c3)nc2n1 [Example 86, N-4-Ethyl-N5-(2-(3-(fluoromethoxy)phenyl)imidazo[1,2-a]pyrimidin-7-yl)-N4,1-dimethyl-1H-pyrazole-4,5-dicarboxamide] | 5.2 nM
CCN(C)C(=O)c1cnn(C)c1C(=O)Nc1ccn2cc(-c3cccc(OC)c3)nc2n1 [Example 87, N-4-ethyl-N5-(2-(3-methoxyphenyl)imidazo[1,2-a]pyrimidin-7-yl)-N-4,1-dimethyl-1H-pyrazole-4,5-dicarboxamide] | 5.5 nM
CN(C)C(=O)c1cnn(C)c1C(=O)Nc1ccn2cc(-c3cccc(OCF)c3)nc2n1 [Example 88, 2-Methyl-2H-pyrazole-3,4-dicarboxylic acid 4-dimethylamide 3-{[2-(3-fluoromethoxy-phenyl)-imidazo[1,2-a]pyrimidin-7-yl]-amide}] | 5.7 nM
CCN(C)C(=O)c1cnn(C)c1C(=O)Nc1ccn2cc(-c3cccc(OCCF)c3)nc2n1 [Example 89, 2-Methyl-2H-pyrazole-3,4-dicarboxylic acid 4-(ethyl-methyl-amide) 3-({2-[3-(2-fluoro-ethoxy)-phenyl]imidazo[1,2-a]pyrimidin-7-yl}-amide)] | 6.1 nM
Cn1ncc(C(=O)N2CC(F)C2)c1C(=O)Nc1ccn2cc(-c3cccc(OCCF)c3)nc2n1 [Example 90, 4-(3-Fluoro-azetidine-1-carbonyl)-2-methyl-2H-pyrazole-3-carboxylic acid {2-[3-(2-fluoro-ethoxy)-phenyl]imidazo[1,2-a]pyrimidin-7-yl}-amide] | 6.1 nM
Cn1ncc(C(=O)N2CCC2)c1C(=O)Nc1ccn2cc(-c3cccc(F)c3)nc2n1 [Example 91, 4-(Azetidine-1-carbonyl)-2-methyl-2H-pyrazole-3-carboxylic acid [2-(3-fluoro-phenyl)-imidazo[1,2-a]pyrimidin-7-yl]-amide] | 6.1 nM
Cn1ncc(C(=O)N2CC(F)C2)c1C(=O)Nc1ccn2cc(-c3cccc(F)c3)nc2n1 [Example 92, 4-(3-Fluoro-azetidine-1-carbonyl)-2-methyl-2H-pyrazole-3-carboxylic acid [2-(3-fluoro-phenyl)-imidazo[1,2-a]pyrimidin-7-yl]-amide] | 6.5 nM

Next, values leading:

IC50 | SMILES
8.3 nM | CC(=O)Oc1cccc(-c2cn3ccc(NC(=O)c4c(C(=O)N(C)C)cnn4C)nc3n2)c1 [Example 93, 3-(7-(4-(dimethylcarbamoyl)-1-methyl-1H-pyrazole-5-carboxamido)imidazo[1,2-a]pyrimidin-2-yl)phenyl acetate]
11.2 nM | CN(C)C(=O)c1cnn(C)c1C(=O)Nc1ccn2cc(-c3cccc(F)c3)nc2n1 [Example 94, 2-Methyl-2H-pyrazole-3,4-dicarboxylic acid 4-dimethylamide 3-{[2-(3-fluoro-phenyl)-imidazo[1,2-a]pyrimidin-7-yl]amide}]
12.2 nM | CN(CCF)C(=O)c1cnn(C)c1C(=O)Nc1ccn2cc(-c3ccccc3)nc2n1 [Example 95, 2-Methyl-2H-pyrazole-3,4-dicarboxylic acid 4-[(2-fluoro-ethyl)-methyl-amide]3-[(2-phenyl-imidazo[1,2-a]pyrimidin-7-yl)-amide]]
12.6 nM | COCCN(C)C(=O)c1cnn(C)c1C(=O)Nc1ccn2cc(-c3cccc(OCCF)c3)nc2n1 [Example 96, 2-Methyl-2H-pyrazole-3,4-dicarboxylic acid 3-({2-[3-(2-fluoro-ethoxy)-phenyl]-imidazo[1,2-a]pyrimidin-7-yl}-amide) 4-[(2-methoxy-ethyl)-methyl-amide]]
14.7 nM | CCN(C)C(=O)c1cnn(C)c1C(=O)Nc1ccn2cc(-c3cccc(F)c3)nc2n1 [Example 97, 2-Methyl-2H-pyrazole-3,4-dicarboxylic acid 4-(ethyl-methyl-amide) 3-{[2-(3-fluoro-phenyl)-imidazo[1,2-a]pyrimidin-7-yl]-amide}]
14.7 nM | COc1cccc(-c2cn3ccc(NC(=O)c4c(C(=O)N5CC(F)C5)cnn4C)nc3n2)c1 [Example 98, 4-(3-Fluoro-azetidine-1-carbonyl)-2-methyl-2H-pyrazole-3-carboxylic acid [2-(3-methoxy-phenyl)-imidazo[1,2-a]pyrimidin-7-yl]-amide]
19 nM | COCCN(C)C(=O)c1cnn(C)c1C(=O)Nc1ccn2cc(-c3cccc(OCF)c3)nc2n1 [Example 99, 2-Methyl-2H-pyrazole-3,4-dicarboxylic acid 3-{[2-(3-fluoromethoxy-phenyl)-imidazo[1,2-a]pyrimidin-7-yl]-amide}-4-[(2-methoxy-ethyl)-methyl-amide]]
21.8 nM | CCN(C)C(=O)c1cnn(C)c1C(=O)Nc1ccn2cc(-c3cccc(OCC(=O)OC)c3)nc2n1 [Example 100, [3-(7-{[4-(Ethyl-methyl-carbamoyl)-2-methyl-2H-pyrazole-3-carbonyl]-amino}-imidazo[1,2-a]pyrimidin-2-yl)-phenoxy]-acetic acid methyl ester]
22 nM | COCCN(C)C(=O)c1cnn(C)c1C(=O)Nc1ccn2cc(-c3cccc(OC)c3)nc2n1 [Example 101, 2-Methyl-2H-pyrazole-3,4-dicarboxylic acid 4-[(2-methoxy-ethyl)-methyl-amide]3-{[2-(3-methoxy-phenyl)-imidazo[1,2-a]pyrimidin-7-yl]amide}]
27.9 nM | CN(C)C(=O)c1cnn(C)c1C(=O)Nc1ccn2cc(-c3cccc(OCCF)c3)nc2n1 [Example 102, 2-Methyl-2H-pyrazole-3,4-dicarboxylic acid 4-dimethylamide 3-({2-[3-(2-fluoro-ethoxy)-phenyl]-imidazo[1,2-a]pyrimidin-7-yl}-amide)]
28.7 nM | Cn1ncc(C(=O)N2CCC2)c1C(=O)Nc1ccn2cc(-c3cccc(OCCF)c3)nc2n1 [Example 103, 4-(Azetidine-1-carbonyl)-2-methyl-2H-pyrazole-3-carboxylic acid {2-[3-(2-fluoro-ethoxy)-phenyl]imidazo[1,2-a]pyrimidin-7-yl}-amide]
29.6 nM | CN(CCF)C(=O)c1cnn(C)c1C(=O)Nc1ccn2cc(-c3cccc(F)c3)nc2n1 [Example 104, 2-Methyl-2H-pyrazole-3,4-dicarboxylic acid 4-[(2-fluoro-ethyl)-methyl-amide]3-{[2-(3-fluoro-phenyl)-imidazo[1,2-a]pyrimidin-7-yl]-amide}]
36.6 nM | CC(=O)Oc1cccc(-c2cn3ccc(NC(=O)c4c(C(=O)N5CCC5)cnn4C)nc3n2)c1 [Example 105, 3-(7-(4-(azetidine-1-carbonyl)-1-methyl-1H-pyrazole-5-carboxamido)imidazo[1,2-a]pyrimidin-2-yl)phenyl acetate]
